Measurements: patent US8802597B2, “Herbicidal pyrimidines” (E I du Pont de Nemours and Company, priority 2003, dated 2014)

Legend:
Assay type in all cases: in vivo
[1] = system: dallisgrass (Paspalum dilatatum); experiment: Test F pre/postemergence
Excerpt: (§1) Seeds or nutlets of plant species selected from (turf) bermudagrass (Cynodon dactylon), Kentucky bluegrass (Poa pratensis), bentgrass (Agrostis palustris), hard fescue (Festuca ovina), large crabgrass (Digitaria sanguinalis), goosegrass (Eleusine indica), dallisgrass (Paspalum dilatatum), annual bluegrass (Poa annua), common chickweed (Stellaria media), dandelion (Taraxacum officinale), white clover (Trifolium repens), and yellow nutsedge (Cyperus esculentus) were planted and treated preemergence with the test chemical formulated in a non-phytotoxic solvent mixture which included a surfactant.
(§2) At the same time, plants selected from these crop and weed species were treated with postemergence applications of the test chemical formulated in the same manner. Plants ranged in height from 2 to 18 cm (1- to 4-leaf stage) for postemergence treatments. Treated plants and controls were maintained in a greenhouse for 12 to 14 days, after which time all species were compared to controls and visually evaluated. Plant response ratings, summarized in Table F, are based on a scale of 0 to 100 where 0 is no effect and 100 is complete control. A dash (-) response means no test result.

[2] = system: dandelion (Taraxacum officinale); experiment: Test F pre/postemergence
Excerpt: as §1, §2

[3] = system: hard fescue (Festuca ovina); experiment: Test F pre/postemergence
Excerpt: as §1, §2

[4] = system: (turf) bermudagrass (Cynodon dactylon); experiment: Test F pre/postemergence
Excerpt: as §1, §2

[5] = system: purple redstem (AMMCO; Ammannia coccinea); experiment: Test J mixtures of compound 58 with azimsulfuron, flooded paddy; details: 21 days, scale 0-100
Excerpt: (§3) This test evaluated the effect of mixtures of compound 58 with azimsulfuron on several plant species. Three plastic pots (ca. 16-cm diameter) per rate were partially filled with sterilized Tama silt loam soil comprising a 35:50:15 ratio of sand, silt and clay and 2.6% organic matter. Separate plantings for each of the three pots were as follows. Seeds from the U.S. of ducksalad (HETLI; Heteranthera limosa), smallflower umbrella sedge (CYPDI; Cyperus difformis) and purple redstem (AMMCO; Ammannia coccinea), were planted into one 16-cm pot for each rate. Seeds from the U.S. of bearded sprangletop (LEFUF; Leptochloa fusca ssp. fascicularis), one stand of 9 or 10 water-seeded rice seedlings (ORYSW; Oryza sativa cv. ‘Japonica-M202’), and one stand of 6 transplanted rice seedlings (ORYSP; Oryza sativa cv. ‘Japonica-M202’) were planted into one 16-cm pot for each rate. Seeds from the U.S. of barnyardgrass (ECHCG; Echinochloa crus-galli), late watergrass (ECOR2; Echinochloa oryzicola), early watergrass (ECHOR; Echinochloa oryzoides) and junglerice (ECHCO; Echinochloa colona) were planted into one 16-cm pot for each rate. Plantings were sequential so that crop and weed species were at the 2.0 to 2.5-leaf stage at time of treatment.
(§4) Potted plants were grown in a greenhouse with day/night temperature settings of 29.5/26.7° C., and supplemental balanced lighting was provided to maintain a 16-hour photoperiod. Test pots were maintained in the greenhouse until test completion.
(§5) At time of treatment, test pots were flooded to 3 cm above the soil surface and then treated by application directly to the paddy water of test compounds formulated in a non-phytotoxic solvent mixture which included a surfactant. The pots were maintained at the 3-cm water depth for the duration of the test. Treatments consisted of compound 58 and azimsulfuron alone and in combination. Effects of treatments on rice and weeds were visually evaluated by comparison to untreated controls after 21 days. Plant response ratings were calculated as the means of the three replicates and are summarized in Table J. The ratings are based on a scale of 0 to 100 where 0 is no effect and 100 is complete control. A dash (-) response means no test result. Colby's Equation was used to determine the herbicidal effects expected from the mixtures.

[6] = system: late watergrass (ECOR2; Echinochloa oryzicola); experiment: as above; details: 21 days, scale 0-100
Excerpt: as §3, §4, §5

[7] = system: water-seeded rice seedlings (ORYSW; Oryza sativa cv. ‘Japonica-M202’); experiment: as above; details: 21 days, scale 0-100
Excerpt: as §3, §4, §5

[8] = system: smallflower umbrella sedge (CYPDI; Cyperus difformis); experiment: as above; details: 21 days, scale 0-100
Excerpt: as §3, §4, §5

[9] = system: bearded sprangletop (LEFUF; Leptochloa fusca ssp. fascicularis); experiment: as above; details: 21 days, scale 0-100
Excerpt: as §3, §4, §5

[10] = system: barnyardgrass (ECHCG; Echinochloa crus-galli); experiment: as above; details: 21 days, scale 0-100
Excerpt: as §3, §4, §5

[11] = system: transplanted rice seedlings (ORYSP; Oryza sativa cv. ‘Japonica-M202’); experiment: as above; details: 21 days, scale 0-100
Excerpt: as §3, §4, §5

[12] = system: early watergrass (ECHOR; Echinochloa oryzoides); experiment: as above; details: 21 days, scale 0-100
Excerpt: as §3, §4, §5

[13] = system: junglerice (ECHCO; Echinochloa colona); experiment: as above; details: 21 days, scale 0-100
Excerpt: as §3, §4, §5

CCOC(=O)c1nc(C2CC2)nc(N)c1Br [Compound 1, ethyl 6-amino-5-bromo-2-cyclopropyl-4-pyrimidinecarboxylate]
Plant response rating (0 to 100 scale) ([1]; Postemergence, 31 g ai/ha): 0 | Plant response rating (0 to 100 scale) ([1]; Postemergence, 62 g ai/ha): 0 | Plant response rating (0 to 100 scale) ([1]; Postemergence, 125 g ai/ha): 15 | Plant response rating (0 to 100 scale) ([1]; Postemergence, 250 g ai/ha): 75 | Plant response rating (0 to 100 scale) ([1]; Postemergence, 500 g ai/ha): 60 | Plant response rating (0 to 100 scale) ([1]; Preemergence, 31 g ai/ha): 10 | Plant response rating (0 to 100 scale) ([1]; Preemergence, 62 g ai/ha): 35 | Plant response rating (0 to 100 scale) ([1]; Preemergence, 125 g ai/ha): 45 | Plant response rating (0 to 100 scale) ([1]; Preemergence, 250 g ai/ha): 70 | Plant response rating (0 to 100 scale) ([1]; Preemergence, 500 g ai/ha): 95 | Plant response rating (0 to 100 scale) ([2]; Postemergence, 31 g ai/ha): 50 | Plant response rating (0 to 100 scale) ([2]; Postemergence, 62 g ai/ha): 75 | Plant response rating (0 to 100 scale) ([2]; Postemergence, 125 g ai/ha): 75 | Plant response rating (0 to 100 scale) ([2]; Postemergence, 250 g ai/ha): 85 | Plant response rating (0 to 100 scale) ([2]; Postemergence, 500 g ai/ha): 95 | Plant response rating (0 to 100 scale) ([2]; Preemergence, 31 g ai/ha): 35 | Plant response rating (0 to 100 scale) ([2]; Preemergence, 62 g ai/ha): 95 | Plant response rating (0 to 100 scale) ([2]; Preemergence, 125 g ai/ha): 100 | Plant response rating (0 to 100 scale) ([2]; Preemergence, 250 g ai/ha): 100 | Plant response rating (0 to 100 scale) ([2]; Preemergence, 500 g ai/ha): 100 | Plant response rating (0 to 100 scale) ([3]; Postemergence, 31 g ai/ha): 0 | Plant response rating (0 to 100 scale) ([3]; Postemergence, 62 g ai/ha): 0 | Plant response rating (0 to 100 scale) ([3]; Postemergence, 125 g ai/ha): 0 | Plant response rating (0 to 100 scale) ([3]; Postemergence, 250 g ai/ha): 0 | Plant response rating (0 to 100 scale) ([3]; Postemergence, 500 g ai/ha): 0 | Plant response rating (0 to 100 scale) ([3]; Preemergence, 31 g ai/ha): 50 | Plant response rating (0 to 100 scale) ([3]; Preemergence, 62 g ai/ha): 60 | Plant response rating (0 to 100 scale) ([3]; Preemergence, 125 g ai/ha): 60 | Plant response rating (0 to 100 scale) ([3]; Preemergence, 250 g ai/ha): 60 | Plant response rating (0 to 100 scale) ([3]; Preemergence, 500 g ai/ha): 90 | Plant response rating (0 to 100 scale) ([4]; Postemergence, 31 g ai/ha): 0 | Plant response rating (0 to 100 scale) ([4]; Postemergence, 62 g ai/ha): 20 | Plant response rating (0 to 100 scale) ([4]; Postemergence, 125 g ai/ha): 40 | Plant response rating (0 to 100 scale) ([4]; Postemergence, 250 g ai/ha): 50 | Plant response rating (0 to 100 scale) ([4]; Postemergence, 500 g ai/ha): 70 | Plant response rating (0 to 100 scale) ([4]; Preemergence, 31 g ai/ha): 10 | Plant response rating (0 to 100 scale) ([4]; Preemergence, 62 g ai/ha): 40 | Plant response rating (0 to 100 scale) ([4]; Preemergence, 125 g ai/ha): 50 | Plant response rating (0 to 100 scale) ([4]; Preemergence, 250 g ai/ha): 80 | Plant response rating (0 to 100 scale) ([4]; Preemergence, 500 g ai/ha): 90

COC(=O)c1nc(-c2ccc(Cl)cc2)nc(N)c1Cl [Compound 58, methyl 6-amino-5-chloro-2-(4-chlorophenyl)-4-pyrimidinecarboxylate]
AMMCO Obsd. ([5]; Cmpd 58 16 g a.i./ha alone): 0 | AMMCO Obsd. ([5]; Cmpd 58 32 g a.i./ha alone): 30 | AMMCO Obsd. ([5]; Cmpd 58 64 g a.i./ha alone): 90 | ECOR2 Obsd. ([6]; Compound 58 16 g a.i./ha alone): 0 | ECOR2 Obsd. ([6]; Compound 58 32 g a.i./ha alone): 0 | ECOR2 Obsd. ([6]; Compound 58 64 g a.i./ha alone): 0 | ORYSW Obsd. ([7]; Cmpd 58 16 g a.i./ha alone): 10 | ORYSW Obsd. ([7]; Cmpd 58 32 g a.i./ha alone): 10 | ORYSW Obsd. ([7]; Cmpd 58 64 g a.i./ha alone): 20 | CYPDI Obsd. ([8]; Cmpd 58 16 g a.i./ha alone): 100 | CYPDI Obsd. ([8]; Cmpd 58 32 g a.i./ha alone): 100 | CYPDI Obsd. ([8]; Cmpd 58 64 g a.i./ha alone): 100 | LEFUF Obsd. ([9]; Compound 58 16 g a.i./ha alone): 0 | LEFUF Obsd. ([9]; Compound 58 32 g a.i./ha alone): 0 | LEFUF Obsd. ([9]; Compound 58 64 g a.i./ha alone): 20 | ECHCG Obsd. ([10]; Compound 58 16 g a.i./ha alone): 0 | ECHCG Obsd. ([10]; Compound 58 32 g a.i./ha alone): 0 | ECHCG Obsd. ([10]; Compound 58 64 g a.i./ha alone): 0 | ORYSP Obsd. ([11]; Cmpd 58 16 g a.i./ha alone): 0 | ORYSP Obsd. ([11]; Cmpd 58 32 g a.i./ha alone): 0 | ORYSP Obsd. ([11]; Cmpd 58 64 g a.i./ha alone): 0 | ECHOR Obsd. ([12]; Compound 58 16 g a.i./ha alone): 0 | ECHOR Obsd. ([12]; Compound 58 32 g a.i./ha alone): 0 | ECHOR Obsd. ([12]; Compound 58 64 g a.i./ha alone): 0 | ECHCO Obsd. ([13]; Compound 58 16 g a.i./ha alone): 0 | ECHCO Obsd. ([13]; Compound 58 32 g a.i./ha alone): 0 | ECHCO Obsd. ([13]; Compound 58 64 g a.i./ha alone): 0
